Values quoted from earlier work as cited in patent US20140044668A1, “Methods for Predicting Cardiovascular Risks and Responsiveness to Statin Therapy Using SNPs” (THE OHIO STATE UNIVERSITY, priority 2011, published 2014).

Target: T1, CETP (Homo sapiens, UniProt P11597)
T1 sequence (P11597 18-493): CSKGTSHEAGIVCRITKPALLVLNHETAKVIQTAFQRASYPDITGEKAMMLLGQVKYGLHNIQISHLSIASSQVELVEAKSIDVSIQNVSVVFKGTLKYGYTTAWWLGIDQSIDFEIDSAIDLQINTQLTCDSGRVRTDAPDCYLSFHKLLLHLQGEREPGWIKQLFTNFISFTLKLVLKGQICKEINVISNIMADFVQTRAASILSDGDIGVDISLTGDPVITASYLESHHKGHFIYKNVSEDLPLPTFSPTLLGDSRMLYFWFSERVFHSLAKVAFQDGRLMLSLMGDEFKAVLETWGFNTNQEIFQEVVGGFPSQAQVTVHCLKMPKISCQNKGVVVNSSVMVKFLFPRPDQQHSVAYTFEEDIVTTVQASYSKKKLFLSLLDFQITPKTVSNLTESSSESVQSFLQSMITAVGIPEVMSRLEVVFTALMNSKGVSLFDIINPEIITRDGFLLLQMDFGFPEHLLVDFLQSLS
Conditions: in vivo

HDL: HDL increased
LDL: LDL decreased substantially
Compound: CCOC(=O)N1c2ccc(C(F)(F)F)cc2[C@@H](N(Cc2cc(C(F)(F)F)cc(C(F)(F)F)c2)C(=O)OC)C[C@H]1CC [torcetrapib]
cardiovascular events: increase cardiovascular events
